{
  "source": "patent US20220265770A1",
  "about": "“TREATING NEURODEGENERATIVE DISEASES WITH PROGRANULIN” (NEURODYN, INC., priority 2008, published 2022)",
  "molecules": {"B1": {"name": "grn D: granulin epithelin module, SEQ ID NO: 10, His-tagged (protein)", "chain": "AMDIGCDQHTSCPVGQTCCPSLGGSWACCQLPHAVCCEDRQHCCPAGYTCNVKARSCEKLAAALEHHHHHH", "modifications": "His tag"}},
  "key": {"[1]": {"tested_on": "caudal primary motor neurons of zebrafish embryos", "assay": "Zebrafish ventral primary motor axon/nerve growth (znp1 immunostaining)", "assay_type": "in vivo", "text": "During the first day of zebrafish development, neuromuscular connections are restricted to the three primary motoneurons (CaP, MiP and RoP) per spinal cord hemisegment where they innervate three myotome areas that ultimately develop into body wall muscle. During the first the 24 hpf CaP axons project to establish the common pathway. This is the developmental period encompassed in FIGS. 27 and 28.\nDevelopment of ventral primary neurons were examined in whole mount embryos at 26-28 hpf and visualized by immunostaining with znp1 monoclonal antibody that labels primary motor neurons.\nThere is reduced incidence (P<0.001) of truncated neurons (FIG. 27, Panel D, white arrows) together with increased incidence (P<0.001) of early and late branching (FIG. 27, Panel E, white arrowheads) as shown in Table 2. Data sets were accumulated from 50 embryos (WT, progranulin MO, progranulin MO plus mRNA).\nFish husbandry: Wild type zebrafish were purchased from Aquatica Tropicals (Florida) and maintained on a 14 h/10 h light/dark cycle at 28.5° C. in a laboratory aquarium (Allentown Caging Equipment Co. Inc., Allentown, N.J.). Fish were fed twice daily. In the late afternoon of the day before eggs are required, fish were transferred to a net positioned towards the top of a holding tank and covered. In the morning, after the light cycle begins and spawning has stopped, the eggs that have fallen through the net were collected from the bottom of the tank. Embryos to be used for developmental studies were collected and staged by hours post fertilization (hpf). […]\nMicroinjection of Pgrn mRNA: For Pgrn mRNA over-expression and rescue experiments the vector was generated as follows: The full-length progranulin-a sequence was purchased from RZPD (Berlin, Germany) as clone UCDMp574E2318Q2 and subcloned into pcDNA3.1-V5/His vector (Invitrogen, Carlsbad, Calif.) using a forward primer that overlapped with the starter AUG a reverse primer that read through the termination codon. […]"}, "male CD-1 mice [2]": {"tested_on": "male CD-1 mice", "assay": "Leg extension reflex following synthetic BSSG exposure", "assay_type": "in vivo, mouse", "details": "100 mg/day synthetic BSSG for 15 weeks, then normal chow; weekly, week 0-32, vs control p<0.0001", "method": "Three month old male CD-1 mice were fed 100 mg/day of synthetic BSSG for 15 weeks, then permitted to age with a diet of normal lab chow. Leg extension was measured weekly from the initiation of the experiment. Testing was performed as described in Wilson et al., 2004 and Wilson et al., 2005.\nThe leg extension reflex test was used as a measure of motor neuron dysfunction (Barneoud and Curet, 1999). This test was altered to discriminate more subtle behaviors, creating a scale from 0 to 4. […] This scale allows the measure of progression in a continuous manner over time. A score of 0-4 is assigned based on the response shown by the mouse as follows:\n4: Complete extension of both legs (normal).\n3: Two legs extended with some tremors and/or punching in a leg.\n2: One leg extended, 1 retracted, or tremors in both legs.\n1: One leg retracted, tremors in other leg."}, "male CD-1 mice [3]": {"tested_on": "male CD-1 mice", "assay": "Open field motor activity (grid crossings) following synthetic BSSG exposure", "assay_type": "in vivo, mouse", "details": "same mice as Example 4; week 28 vs controls, p<0.05", "method": "The same mice exposed to BSSG in Example 4 were used to analyze open field motor activity. *=p<0.05 (Student T-test).\nFor the open field motor activity analysis, mice were placed in a round open field (2 m diameter) for 5 minutes and movements were recorded using a video camera to measure emotionality and exploration (spontaneous motor activity) (Karl et al., 2003). Videos were replayed on a TV and a circular grid was overlaid on the TV screen. Grid crossings were recorded."}, "[4]": {"tested_on": "motor neurons in lumbar cord", "assay": "Motor neuron quantification (Nissl, ChAT, CTIP2, caspase-3) after 10 weeks BSSG", "assay_type": "in vivo, mouse", "details": "varying doses of synthetic BSSG for 10 weeks, aged 1 or 5 months on normal chow", "text": "Six month old male CD-1 mice were fed varying doses of synthetic BSSG for 10 weeks, then allowed to age for 1 month with a diet of normal chow prior to sacrifice (see FIG. 3, panels A-C). Motor neurons were quantified in lumbar cord, by Nissl staining and choline acetyltransferase (ChAT) immunohistochemistry (IHC), as shown in FIG. 3A. Motor neurons were quantified in motor cortex where neurons were detected by IHC against CTIP2 (highly expressed in corticospinal motor neurons), as shown in FIG. 3C. Motor neurons in the lumbar spinal cord of animals permitted to age for 5 months following the cessation of BSSG were quantified after Nissl staining, as shown in FIG. 3D (* P<0.01, ANOVA).\nLumbar spinal cord sections were stained with cresyl violet and ventral horn motor neurons were counted under a 40× objective lens. All motor neurons in the field of view were included in the results. Multiple sections (N=6) from each mouse were used. Counts were conducted on spinal cord sections that were at least 150 μm apart (in the rostral-caudal plane) ensuring that no motor neuron was counted twice. In addition, counts included all apparent motor neurons including motor neurons that may have appeared atrophic or damaged.\nActive caspase-3 (Promega, Madison, Wis.) labeling was performed as follows. […] Sections were visualized using fluorescence microscopy. […]"}, "progranulin expression": {"tested_on": "progranulin expression", "assay": "In situ hybridization of progranulin expression in cervical spinal cord of BSSG fed mice", "assay_type": "in vivo, mouse", "method": "Adult male CD-1 mice were fed a diet of either normal chow or chow containing […] per day of synthetic BSSG. Following 10 weeks of feeding with BSSG-containing chow and a further month with normal lab chow, mice were killed and ISH using progranulin specific antisense riboprobes was performed on frozen sections of cervical spinal cord cut in trans-section. High levels of progranulin expression were detected in the anterior horn cells of the control mouse as shown by the section in FIG. 9A. […] A negative control section is shown in FIG. 9C, incubated with a sense probe.\nAdult male CD-1 mice were fed a diet of chow containing 10, 100, or 1000 μg per day of synthetic BSSG. Following 10 weeks of feeding with BSSG-containing chow and a further month with normal lab chow, mice were killed and ISH using progranulin specific riboprobes was performed on frozen sections of cervical spinal cord cut in trans-section. […] Additionally, there is a more pronounced loss of progranulin expression per cell as BSSG exposure increases."}, "spinal motor neurons": {"tested_on": "spinal motor neurons", "assay": "Spinal motor neuron counts and ChAT in BSSG challenged mice treated with PGRN lentivirus", "assay_type": "in vivo, mouse"}, "NSC-34 cells [5]": {"tested_on": "NSC-34 cells", "details": "literature (Tabata et al.); cited from earlier work"}, "NSC-34 cells [6]": {"tested_on": "NSC-34 cells", "assay": "NSC-34 proliferation/survival with granulin epithelin modules (CyQUANT NF)", "assay_type": "cell-based", "details": "50 or 100 ng/ml, 13 days, RPMI without serum", "method": "NSC 34 cells (5000 cell/well) were plated in 96 well plates using 100 ul of DMEM/10% FBS. The following day, the medium was removed and replaced with 100 ul of RPMI (without serum) containing: 0, 50 or 100 ng/ml of grn D or grn F. Cultures were incubated for 13 days following which cell proliferation/survival was determined using the CyQUANT® NF (kit #C35006) assay.\nThe CyQUANT® NF assay is based on measurement of cellular DNA content via fluorescent dye binding. The extent of proliferation/survival is determined by comparing fluorescence intensity for NSC-34 cells treated with GEMs (50 and 100 ng) relative to untreated controls (Ong).\nAs per the manufacturers instructions, the protocol included aspiration of growth medium, replacement with 100 ul of dye binding solution per well, incubation for 30 minutes following which the fluorescence intensity of each sample was measured using a fluorescence microplate reader with excitation at ˜485 nm and emission detection at ˜530 nm (FIG. 22). The immortalized motor neuron cell line (NSC-34) responded to incubation with grn F and grn D with either proliferation/survival (grn F) or no effect (grn D) similar to the response of extra neuronal cells incubated in the presence of these GEM's (described in: Tolkatchev D. et al., Protein Sci. 17:711-724, 2008)."}, "[7]": {"details": "Table 2, average number of motor axon/nerve defects per affected side, n=50, 10 ng PgrnA MO, 100 pg mRNA, 26-28 hpf"}},
  "note": "“Also recorded” adds a separate entry of the source.",
  "data": [
    {"molecule": "PGRN-MO2: morpholino to 5′UTR of zebrafish pgrn-a, 5′-GAGCAGGTGGATTTGTGAACAGCGG-3′ (all phosphorodiamidate morpholino (PMO))", "values": [
      {"measurement": "Branching", "setting": "[1]; [7]", "result": "1.0 ± 0.19*c"},
      {"measurement": "Truncation", "setting": "[1]; [7]", "result": "3.02 ± 0.31***a"},
      {"measurement": "primary motor neuron phenotype", "setting": "[1]; whole mount embryos 26-28 hpf, znp1", "result": "range of morphant phenotypes"}
    ]},
    {"molecule": "CC[C@H](CC[C@@H](C)[C@H]1CC[C@H]2[C@@H]3CC=C4C[C@@H](O[C@@H]5O[C@H](CO)[C@@H](O)[C@H](O)[C@H]5O)CC[C@]4(C)[C@H]3CC[C@]12C)C(C)C", "note": "[BSSG, β-sitosterol β-D-glucoside]", "values": [
      {"measurement": "leg extension reflex (score 0-4)", "setting": "male CD-1 mice [2]", "result": "decline in leg extension reflex"},
      {"measurement": "open field motor activity (grid crossing)", "setting": "male CD-1 mice [3]", "result": "significantly decreased movement"},
      {"measurement": "motor neurons in lumbar spinal cord", "setting": "[4]", "result": "Progressive loss of motor neurons; also recorded: dose dependent loss of motor neuron health"},
      {"measurement": "neuropathology and loss of progranulin expressing cells in cervical spinal cord", "setting": "progranulin expression; 10, 100 or 1000 μg per day BSSG, 10 weeks plus 1 month normal chow", "result": "more pronounced neuropathology"},
      {"measurement": "progranulin expression in anterior horn cells of cervical spinal cord (ISH)", "setting": "progranulin expression; 1000 μs per day synthetic BSSG 10 weeks plus 1 month normal chow", "result": "decreased in intensity and was observed in fewer cells of the anterior horn"},
      {"measurement": "numbers of ChAT positive motor neurons", "setting": "spinal motor neurons; control (saline treated) BSSG exposed mice", "result": "appeared to be reduced"},
      {"measurement": "choline acetyl transferase (ChAT) activity in anterior horn cells", "setting": "spinal motor neurons; saline treated BSSG exposed mice relative to all other treatment groups", "result": "decreased activity"},
      {"measurement": "cytotoxicity in NSC-34 cell line", "setting": "NSC-34 cells [5]", "result": "cause cytotoxicity"}
    ]},
    {"molecule": "B1", "values": [
      {"measurement": "cell proliferation/survival (CyQUANT NF fluorescence)", "setting": "NSC-34 cells [6]", "result": "no effect"}
    ]}
  ]
}
